Source: ChEMBL document CHEMBL5331070, “Design, synthesis and evaluation of N3-substituted quinazolinone derivatives as potential Bloom's Syndrome protein (BLM) helicase inhibitor for sensitization treatment of colorectal cancer” (Eur J Med Chem, 2023)
Each block holds one compound with its values, some of them ahead of it. Calls of active or inactive are those of the source. No cut-off for these calls is given here.

How the values were obtained:
[1] = target: T1, RecQ-like DNA helicase BLM (Homo sapiens, UniProt P54132); assay: Displacement of thiazole orange from His-tagged BLM (unknown origin) expressed in Escherichia coli BL21 (DE3) assessed as decrease in fluorescence intensity by fluorescence based analysis
T1 sequence (P54132 whole entry): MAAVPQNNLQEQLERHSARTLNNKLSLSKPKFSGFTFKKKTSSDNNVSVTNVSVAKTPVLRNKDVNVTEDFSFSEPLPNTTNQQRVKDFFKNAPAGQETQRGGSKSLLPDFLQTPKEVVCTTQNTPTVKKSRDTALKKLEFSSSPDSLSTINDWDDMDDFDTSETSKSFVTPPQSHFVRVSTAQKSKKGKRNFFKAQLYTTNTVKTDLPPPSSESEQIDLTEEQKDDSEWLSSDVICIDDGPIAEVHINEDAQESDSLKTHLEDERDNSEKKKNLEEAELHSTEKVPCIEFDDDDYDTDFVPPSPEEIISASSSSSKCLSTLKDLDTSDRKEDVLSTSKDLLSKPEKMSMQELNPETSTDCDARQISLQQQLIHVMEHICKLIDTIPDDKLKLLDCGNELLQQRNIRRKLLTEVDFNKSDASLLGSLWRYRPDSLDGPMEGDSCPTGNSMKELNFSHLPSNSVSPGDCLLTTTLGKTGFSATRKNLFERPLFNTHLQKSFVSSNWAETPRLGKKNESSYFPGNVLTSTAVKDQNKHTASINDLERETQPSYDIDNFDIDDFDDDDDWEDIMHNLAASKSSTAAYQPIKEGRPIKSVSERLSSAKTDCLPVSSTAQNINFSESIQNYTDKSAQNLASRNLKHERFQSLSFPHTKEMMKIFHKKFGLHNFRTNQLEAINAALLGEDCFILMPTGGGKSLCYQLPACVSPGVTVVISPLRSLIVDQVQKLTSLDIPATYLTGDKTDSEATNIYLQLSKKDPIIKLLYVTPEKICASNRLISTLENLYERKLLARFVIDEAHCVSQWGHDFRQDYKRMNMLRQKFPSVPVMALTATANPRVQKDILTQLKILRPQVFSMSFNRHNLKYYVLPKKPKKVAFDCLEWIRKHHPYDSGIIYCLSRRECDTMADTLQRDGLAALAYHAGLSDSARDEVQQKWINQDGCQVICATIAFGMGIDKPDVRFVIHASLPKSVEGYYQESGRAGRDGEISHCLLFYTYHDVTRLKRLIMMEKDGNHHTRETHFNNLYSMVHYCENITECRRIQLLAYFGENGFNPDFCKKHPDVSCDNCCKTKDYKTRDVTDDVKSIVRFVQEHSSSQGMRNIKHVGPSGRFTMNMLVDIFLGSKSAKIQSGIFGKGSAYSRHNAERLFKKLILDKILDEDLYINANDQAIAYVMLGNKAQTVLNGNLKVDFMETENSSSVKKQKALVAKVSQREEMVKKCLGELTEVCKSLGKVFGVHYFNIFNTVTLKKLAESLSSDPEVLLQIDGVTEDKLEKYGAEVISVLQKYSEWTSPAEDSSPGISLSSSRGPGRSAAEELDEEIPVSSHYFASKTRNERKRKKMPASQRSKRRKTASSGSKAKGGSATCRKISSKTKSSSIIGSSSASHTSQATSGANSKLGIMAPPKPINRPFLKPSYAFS

[2] = target: T1, RecQ-like DNA helicase BLM; assay: Inhibition of His-tagged BLM (unknown origin) expressed in Escherichia coli BL21 (DE3) using 5'-biotin-labeled duplex forked-DNA as substrate incubated for 10 mins followed by substrate addition measured after 30 mins in presence of ATP by electrophoretic mobility shift assay
[3] = Disruption of BLM/5'-biotin-labeled duplex forked-DNA interaction incubated for 30 mins by ELISA assay
HCT-116 [4] = assay: Cytotoxicity against human HCT-116 cells assessed as inhibition of cell growth measured after 48 hrs by MTT assay; type: functional, cell-based; conditions: HCT-116, 48 h
SW480 [5] = assay: Cytotoxicity against human SW480 cells assessed as inhibition of cell growth measured after 48 hrs by MTT assay; type: functional, cell-based; conditions: SW480, 48 h
RKO [6] = assay: Cytotoxicity against human RKO cells assessed as inhibition of cell growth measured after 48 hrs by MTT assay; type: functional, cell-based
[7] = Cytotoxicity against human NCM460 cells assessed as inhibition of cell growth measured after 48 hrs by MTT assay; type: toxicity, cell-based
[8] = target: T1, RecQ-like DNA helicase BLM; assay: Inhibition of BLM (unknown origin) assessed as ATP hydrolysis using 5'-biotin-labeled duplex forked-DNA as substrate incubated for 10 mins in presence of ATP by luciferase assay
[9] = target: T1, RecQ-like DNA helicase BLM; assay: Displacement of thiazole orange from His-tagged BLM (unknown origin) expressed in Escherichia coli BL21 (DE3) assessed as decrease in fluorescence intensity at 10 uM by fluorescence based analysis
SW480 [10] = assay: Inhibition of colony formation in human SW480 cells incubated for 10 days by crystal violet staining based assay; type: functional, cell-based; conditions: SW480, 240 h
HCT-116 [11] = assay: Antiproliferative activity against wild type human HCT-116 cells assessed as inhibition of cell growth incubated for 48 hrs by propidium iodide staining based high-content imaging analysis; type: functional; conditions: HCT-116, 48 h
[12] = target: T1, RecQ-like DNA helicase BLM; assay: Inhibition of BLM in human HCT-116 cells co-transfected with I-SceI assessed as effect on HRR level by measuring GFP expression at 1 to 3 uM incubated for 48 hrs by propidium iodide staining based high-content imaging analysis; type: cell-based; conditions: dose 1-3 µM
[13] = target: T1, RecQ-like DNA helicase BLM; assay: Inhibition of BLM in human HCT-116 cells co-transfected with DR-GFP and I-SceI plasmid assessed as decease in recruitment of BLM to DSB site at 1 to 2 uM incubated for 48 hrs by qPCR analysis; type: cell-based; conditions: dose 1-2 µM
HCT-116 [14] = assay: Induction of DNA damage in human HCT-116 cells at 3 uM incubated for 48 hrs by DAPI staining based laser scanning confocal microscopic analysis; type: functional, cell-based
SW480 [15] = assay: Induction of DNA damage in human SW480 cells at 3 uM incubated for 48 hrs by DAPI staining based laser scanning confocal microscopic analysis; type: functional, cell-based
RKO [16] = assay: Induction of DNA damage in human RKO cells at 3 uM incubated for 48 hrs by DAPI staining based laser scanning confocal microscopic analysis; type: functional, cell-based
HCT-116 [17] = assay: Induction of DNA damage in human HCT-116 cells assessed as increase in gamma-H2AX level at above 0.3 uM incubated for 48 hrs by Western blotting analysis; type: functional, cell-based
SW480 [18] = assay: Induction of DNA damage in human SW480 cells assessed as increase in gamma-H2AX level at above 0.3 uM incubated for 48 hrs by Western blotting analysis; type: functional, cell-based
RKO [19] = assay: Induction of DNA damage in human RKO cells assessed as increase in gamma-H2AX level at above 0.3 uM incubated for 48 hrs by Western blotting analysis; type: functional, cell-based
HCT-116 [20] = assay: Induction of cell cycle arrest in human HCT-116 cells assessed as accumulation of cells at S phase at 4 uM measured after 48 hrs by propidium iodide staining based high-content screening method; type: functional
SW480 [21] = assay: Induction of cell cycle arrest in human SW480 cells assessed as accumulation of cells at S phase at 4 uM measured after 48 hrs by propidium iodide staining based high-content screening method; type: functional
HCT-116 [22] = assay: Induction of cell cycle arrest in human HCT-116 cells assessed as accumulation of cells at G2/M phase at 4 uM measured after 48 hrs by propidium iodide staining based high-content screening method; type: functional
SW480 [23] = assay: Induction of cell cycle arrest in human SW480 cells assessed as accumulation of cells at G2/M phase at 4 uM measured after 48 hrs by propidium iodide staining based high-content screening method; type: functional
RKO [24] = assay: Induction of cell cycle arrest in human RKO cells assessed as accumulation of cells at G2/M phase at 4 uM measured after 48 hrs by propidium iodide staining based high-content screening method; type: functional
HCT-116 [25] = assay: Induction of apoptosis in human HCT-116 cells assessed as apoptotic cells at 1 uM measured after 48 hrs by Annexin V-FITC/PI staining based flow cytometry (reference value: 14%); type: functional
SW480 [26] = assay: Induction of apoptosis in human SW480 cells assessed as apoptotic cells at 1 uM measured after 48 hrs by Annexin V-FITC/PI staining based flow cytometry (reference value: 16%); type: functional
HCT-116 [27] = assay: Inhibition of colony formation in human HCT-116 cells incubated for 10 days by crystal violet staining based assay; type: functional, cell-based; conditions: HCT-116, 240 h
RKO [28] = assay: Inhibition of colony formation in human RKO cells incubated for 10 days by crystal violet staining based assay; type: functional, cell-based; conditions: 240 h
HCT-116 [29] = assay: Inhibition of cell invasion in human HCT-116 cells incubated for 48 hrs by crystal violet staining based transwell assay; type: functional; conditions: HCT-116, 48 h

IC50 [1]: > 10 µM
IC50 [2]: > 32 µM
Compound: CCCn1c(/C=C/c2ccc(C(C)C)cc2)nc2cc(NCCCN(CC)CC)c(F)cc2c1=O

IC50 [1]: > 10 µM
IC50 [2]: 5.1 µM
IC50 [3]: 7.3 µM
IC50 [8]: > 32 µM
Compound: CCN(CC)CCCNc1cc2nc(/C=C/c3ccc(C(C)C)cc3)n(CCCl)c(=O)c2cc1F
IC50 (HCT-116 [4]): 5.6 µM
IC50 (SW480 [5]): 4.5 µM
IC50 (RKO [6]): 5.6 µM
IC50 at 48 h [7]: 15 µM

IC50 [1]: > 10 µM
IC50 [2]: 5.8 µM
Compound: CCN(CC)CCCNc1cc2nc(/C=C/c3ccc(C(C)C)cc3)n(Cc3ccccc3)c(=O)c2cc1F

IC50 [1]: > 10 µM
IC50 [2]: 4 µM
Compound: CCN(CC)CCCNc1cc2nc(/C=C/c3ccc(C(C)C)cc3)n(CCc3ccccc3)c(=O)c2cc1F

IC50 [2]: > 32 µM
Activity [9]: inactive
Compound: CCN(CC)CCCNc1cc2nc(/C=C/c3ccc(C(C)C)cc3)n(CC3CCOCC3)c(=O)c2cc1F

IC50 [2]: 9.7 µM
Activity [9]: inactive
Compound: CCN(CC)CCCNc1cc2nc(/C=C/c3ccc(C(C)C)cc3)n(Cc3ccccc3Cl)c(=O)c2cc1F

IC50 [2]: > 32 µM
Activity [9]: inactive
Compound: CCN(CC)CCCNc1cc2nc(/C=C/c3ccc(C(C)C)cc3)n(CCCN(CC)CC)c(=O)c2cc1F

IC50 [1]: > 10 µM
IC50 [2]: > 32 µM
Compound: CCN(CC)CCCNc1cc2nc(/C=C/c3ccc(C(C)C)cc3)n(CCOC(C)=O)c(=O)c2cc1F

IC50 [2]: 4.3 µM
Activity [9]: inactive
Compound: CCN(CC)CCCNc1cc2nc(/C=C/c3ccc(C(C)C)cc3)n(CC#N)c(=O)c2cc1F

IC50 [2]: 3.7 µM
Activity [9]: inactive
Compound: CCCCCn1c(/C=C/c2ccc(C(C)C)cc2)nc2cc(NCCCN(CC)CC)c(F)cc2c1=O

IC50 [1]: > 10 µM
IC50 [2]: 5.2 µM
Compound: CCN(CC)CCCNc1cc2nc(/C=C/c3ccc(C(C)C)cc3)n(CCCOC(C)C)c(=O)c2cc1F

IC50 [2]: 32 µM
Activity [9]: inactive
Compound: CCN(CC)CCCNc1cc2nc(/C=C/c3ccc(C(C)C)cc3)n(CCCO)c(=O)c2cc1F

IC50 [2]: 9.1 µM
Activity [9]: inactive
Compound: CCN(CC)CCCNc1cc2nc(/C=C/c3ccc(C(C)C)cc3)n(CCC(C)C)c(=O)c2cc1F

IC50 [2]: 1.3 µM
IC50 [3]: 4.9 µM
Activity [9]: inactive
IC50 [8]: > 32 µM
Compound: CCN(CC)CCCNc1cc2nc(/C=C/c3ccc(C(C)C)cc3)n(CCCCl)c(=O)c2cc1F
IC50 (HCT-116 [4]): 5.3 µM
IC50 (SW480 [5]): 3.45 µM
IC50 (RKO [6]): 12.3 µM
IC50 at 48 h [7]: 9.6 µM

IC50 [2]: 8.3 µM
Activity [9]: inactive
Compound: CCN(CC)CCCNc1cc2nc(/C=C/c3ccc(C(C)C)cc3)n(CC3CC3)c(=O)c2cc1F

IC50 [1]: > 10 µM
IC50 [2]: > 32 µM
Compound: CCN(CC)CCCNc1cc2nc(/C=C/c3ccc(C(C)C)cc3)n(CCCN3CCOCC3)c(=O)c2cc1F

IC50 [2]: 2.9 µM
Activity [9]: inactive
Compound: CCN(CC)CCCNc1cc2nc(/C=C/c3ccc(C(C)C)cc3)n(Cc3ccccc3Br)c(=O)c2cc1F

IC50 [2]: 5.3 µM
Activity [9]: inactive
Compound: CCN(CC)CCCNc1cc2nc(/C=C/c3ccc(C(C)C)cc3)n(Cc3ccccc3C(F)(F)F)c(=O)c2cc1F

IC50 [2]: 5 µM
Activity [9]: inactive
Compound: CCN(CC)CCCNc1cc2nc(/C=C/c3ccc(C(C)C)cc3)n(Cc3ccc(OC)cc3)c(=O)c2cc1F

IC50 (SW480 [10]): 0.6 µM
IC50 [2]: 0.8 µM
IC50 [3]: 2.3 µM
Activity [9]: inactive
IC50 [8]: > 32 µM
IC50 (HCT-116 [11]): 1.9 µM
inhibition [12]: Active
inhibition [13]: Active
IC50 (HCT-116 [27]): 0.6 µM
IC50 (RKO [28]): 0.7 µM
IC50 (HCT-116 [29]): 1 µM
Compound: CCN(CC)CCCNc1cc2nc(/C=C/c3ccc(C(C)C)cc3)n(Cc3ccc(Br)cc3)c(=O)c2cc1F
IC50 (HCT-116 [4]): 2.8 µM
IC50 (SW480 [5]): 2.2 µM
IC50 (RKO [6]): 5.4 µM
IC50 at 48 h [7]: 15.6 µM
Activity (HCT-116 [14]): Active
Activity (SW480 [15]): Active
Activity (RKO [16]): Active
Activity (HCT-116 [17]): Active
Activity (SW480 [18]): Active
Activity (RKO [19]): Active
Activity (HCT-116 [20]): 54%
Activity (SW480 [21]): 58%
Activity (HCT-116 [22]): 20%
Activity (SW480 [23]): 19%
Activity (RKO [24]): 25%
Activity (HCT-116 [25]): 35%
Activity (SW480 [26]): 68%

IC50 [1]: > 10 µM
IC50 [2]: 2.5 µM
IC50 [3]: 4.5 µM
IC50 [8]: > 32 µM
Compound: CCN(CC)CCCNc1cc2nc(/C=C/c3ccc(C(C)C)cc3)n(CCN(C)C)c(=O)c2cc1F
IC50 (HCT-116 [4]): 3 µM
IC50 (SW480 [5]): 10.1 µM
IC50 (RKO [6]): 10.6 µM
IC50 at 48 h [7]: > 25 µM

IC50 [2]: 4.8 µM
Activity [9]: inactive
Compound: CCCCn1c(/C=C/c2ccc(C(C)C)cc2)nc2cc(NCCCN(CC)CC)c(F)cc2c1=O

IC50 [2]: 5.2 µM
Activity [9]: inactive
Compound: CCN(CC)CCCNc1cc2nc(/C=C/c3ccc(C(C)C)cc3)n(Cc3ccccc3F)c(=O)c2cc1F

IC50 [1]: > 10 µM
IC50 [2]: > 32 µM
Compound: CCN(CC)CCCNc1cc2nc(/C=C/c3ccc(C(C)C)cc3)n(CCC#N)c(=O)c2cc1F

IC50 [2]: 8 µM
Activity [9]: inactive
Compound: C=C(C)Cn1c(/C=C/c2ccc(C(C)C)cc2)nc2cc(NCCCN(CC)CC)c(F)cc2c1=O

IC50 [2]: 2.3 µM
IC50 [3]: 9.9 µM
Activity [9]: inactive
IC50 [8]: > 32 µM
Compound: CCN(CC)CCCNc1cc2nc(/C=C/c3ccc(C(C)C)cc3)n(Cc3cccc(Br)c3)c(=O)c2cc1F
IC50 (HCT-116 [4]): 2.9 µM
IC50 (SW480 [5]): 1.9 µM
IC50 (RKO [6]): 5.7 µM
IC50 at 48 h [7]: 15.3 µM
